The values that follow come from patent publication US10828266B2, “Topical regional neuro-affective therapy with caryophyllene” (Afgin Pharma, LLC, priority 2016, dated 2020).

The test system of data set [1] is human patients. Description: Topical Cari-Derm (3% caryophyllene) on the back of the neck of human patients, case series of Table 1. The class given is in vivo. On the procedure:
(§1) The following patients were treated with a topical caryophyllene formulation (referred to in Table 1 as “Cari-Derm”, which is a topical 3% caryophyllene formulation) administered on the back of the neck on human patients, as more specifically described below in Table 1. The 3% Cari-Derm formulation contained approximately 30 mg of caryophyllene in a unit dose (1 gram).

In the next data set the target is CB2 receptors (Homo sapiens, UniProt P34972). Particulars: background statement; cited from earlier work.
The target of data set [2] is cannabinoid receptor type-1 (CB1) (Homo sapiens, UniProt P21554). Conditions: centrally expressed receptor; background statement; cited from earlier work.
Data set [3] concerns human patients. In words: Inventor's observation of onset and duration of therapeutic effect after administration of caryophyllene at the back of the neck. It counts as in vivo. On the procedure: The inventor has observed rapid therapeutic onset of action, generally, less than 10 to 15 minutes administration of caryophyllene at the back of the neck, with maximal benefit noted well within 30 minutes. In certain embodiments, a prolonged therapeutic effect has been noted, e.g., about 4 to about 12 hours or more, depending on condition and severity of the condition being treated.

Data set [4] relates to human patients. Description: Response to earlier or current medication as given in the patient history of Table 1. Conditions: patient 11, autism and seizures with poor vision and focus. The class given is in vivo. On the procedure:
as §1

Sequence of cannabinoid receptor type-1 (CB1) (P21554 whole entry): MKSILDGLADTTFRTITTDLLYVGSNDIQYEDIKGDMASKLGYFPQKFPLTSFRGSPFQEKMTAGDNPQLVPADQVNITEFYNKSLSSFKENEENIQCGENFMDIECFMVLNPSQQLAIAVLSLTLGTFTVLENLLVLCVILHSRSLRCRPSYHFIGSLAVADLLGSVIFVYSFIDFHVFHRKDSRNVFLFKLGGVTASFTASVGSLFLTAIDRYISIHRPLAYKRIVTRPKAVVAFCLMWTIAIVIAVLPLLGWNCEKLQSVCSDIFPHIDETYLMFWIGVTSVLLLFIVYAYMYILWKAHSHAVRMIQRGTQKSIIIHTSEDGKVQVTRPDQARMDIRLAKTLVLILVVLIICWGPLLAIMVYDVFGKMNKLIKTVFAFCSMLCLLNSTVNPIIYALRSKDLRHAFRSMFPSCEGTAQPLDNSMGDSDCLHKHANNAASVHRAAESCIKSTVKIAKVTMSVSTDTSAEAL
Sequence of CB2 receptors (P34972 whole entry): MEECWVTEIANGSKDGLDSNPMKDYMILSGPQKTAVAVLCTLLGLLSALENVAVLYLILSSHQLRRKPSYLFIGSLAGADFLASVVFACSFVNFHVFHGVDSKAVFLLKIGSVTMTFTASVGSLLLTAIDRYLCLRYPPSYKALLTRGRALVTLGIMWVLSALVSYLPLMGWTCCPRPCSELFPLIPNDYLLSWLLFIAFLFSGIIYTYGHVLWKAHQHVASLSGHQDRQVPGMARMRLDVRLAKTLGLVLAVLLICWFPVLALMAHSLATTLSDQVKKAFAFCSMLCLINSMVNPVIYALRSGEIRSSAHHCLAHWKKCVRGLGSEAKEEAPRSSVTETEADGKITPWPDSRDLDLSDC

For `CN1CCc2cccc3c2[C@H]1Cc1ccc(O)c(O)c1-3` [Apomorphine, apomorphine], in the data set on human patients [1] (patient 14, torticollis with neck pain, apomorphine added after Cari-Derm), the “neck range of motion and pain on adding topical apomorphine” value is reported as “improved further”. Besides, the “tremors, focus, talkativeness with added Apomorphine” value with human patients [1] (patient 20, Parkinson's disease, Apomorphine 5 mg after Cari-Derm) is recorded as “Cari-Derm; further improved”. Besides, in the data set on human patients [1] (patient 23, poor focus, impulsivity, gait problems from Parkinson's, additional 5 mg Apomorphine after Cari-Derm), the “focus, spontaneity, gait after additional Apomorphine” value is listed as “further improvement noted”.

Turning to `C=C(C)[C@@H]1CCC(C)=C[C@H]1c1c(O)cc(CCCCC)cc1O` [CBD, cannabidiol], the “patient's comparison of CBD with Cari-Derm for headache” value in the data set with human patients [1] (patient 35, chronic headaches and ADHD, uses topical CBD cream) is “CBD worked better”.

As for `C=C1CC/C=C(\C)CC[C@@H]2[C@@H]1CC2(C)C` (relative stereo) [caryophyllene, trans-(1R,9S)-8-Methylene-4,11,11-trimethylbicyclo[7.2.0]undec-4-ene], on CB2 receptors, the “action on CB2 receptors” value is on record as “acts on CB2 receptors”. For the same compound, in data set [2], the “binding to cannabinoid receptor type-1 (CB1)” value is on record as “does not bind”. Moreover, the maximal benefit noted with human patients [3] is at most 30 min. For the same compound, the “therapeutic onset of action” value with human patients [3] (generally) was in the range of 10 to 15 min.

For the compound `COC(=O)C(c1ccccc1)C1CCCCN1` (stereo not shown) [Ritalin, methylphenidate], the “agitation on earlier medication” value with human patients [4] is on record as “benefit; increased agitation”.

Turning to “amphetamine, dextroamphetamine mixed salts [Adderall]”, the “agitation on earlier medication” value with human patients [4] was “benefit; increased agitation”.
